Experiment [1] addresses His-tagged CRBN-DDB1 complex (Homo sapiens (Human), UniProt Q96SW2). Put plainly: Time-Resolved Fluorescence Resonance Energy Transfer (TR-FRET) assay, displacement of Cy5-labeled thalidomide. The conditions noted are these: read-out: CRBN HTRF IC50. The class given is binding. The protocol: The mixture were incubated at room temperature for 1 hour. […] Quantitative loss of FRET efficiency as a function of compound concentrations was fitted by a four-parameter Logistic Function using GraphPad Prism 7.0 and the IC50 values were reported for each compound.
Background: TR-FRET usually uses a lanthanide donor and a delayed reading to cut background.

In experiment [2] the target is Untagged CRBN-DDB1 complex (Homo sapiens (Human), UniProt Q96SW2). The experiment can be described thus: Fluorescence Polarization (FP) assay, displacement of Cy5-labeled thalidomide. In kind it is binding. The conditions noted are these: untagged CRBN-DDB1 50 nM, Cy5-labeled thalidomide 20 nM, 10 min room temperature. The protocol:
The final solution contained 50 mM HEPES, 200 mM NaCl and 2 mM DTT, pH 7.5. The mixtures were incubated at room temperature for 10 min. The FP signals were recorded on an EnVision plate reader (Perkin Elmer) using the following settings: Excitation Light (%): 100; Measurement Height: 12; G-Factor: 1; Detector Gain 1: 500; Detector Gain 2: 500; Flash Number: 100. Dose-dependent loss of FP signals was fitted by four-parameter Logistic Function using GraphPad Prism 7.0 and the IC50 values were reported for each compound.

Each structure is given as a SMILES string. Where a name gives a salt, the structure may show the parent alone.

His-tagged CRBN-DDB1 complex, sequence (Q96SW2 whole entry): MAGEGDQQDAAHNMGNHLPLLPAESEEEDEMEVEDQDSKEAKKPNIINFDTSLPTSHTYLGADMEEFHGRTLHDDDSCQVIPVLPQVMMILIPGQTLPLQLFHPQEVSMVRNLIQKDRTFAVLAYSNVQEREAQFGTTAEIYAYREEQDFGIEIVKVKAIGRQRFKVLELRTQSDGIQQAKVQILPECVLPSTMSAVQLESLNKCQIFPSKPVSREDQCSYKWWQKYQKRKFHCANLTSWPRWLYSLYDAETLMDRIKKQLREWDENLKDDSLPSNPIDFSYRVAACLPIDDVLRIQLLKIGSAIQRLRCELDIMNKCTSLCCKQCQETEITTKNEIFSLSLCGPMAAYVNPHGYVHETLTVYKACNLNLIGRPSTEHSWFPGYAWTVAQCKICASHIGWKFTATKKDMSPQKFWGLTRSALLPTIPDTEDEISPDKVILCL
His-tagged CRBN-DDB1 complex, sequence (Q16531 whole entry partner): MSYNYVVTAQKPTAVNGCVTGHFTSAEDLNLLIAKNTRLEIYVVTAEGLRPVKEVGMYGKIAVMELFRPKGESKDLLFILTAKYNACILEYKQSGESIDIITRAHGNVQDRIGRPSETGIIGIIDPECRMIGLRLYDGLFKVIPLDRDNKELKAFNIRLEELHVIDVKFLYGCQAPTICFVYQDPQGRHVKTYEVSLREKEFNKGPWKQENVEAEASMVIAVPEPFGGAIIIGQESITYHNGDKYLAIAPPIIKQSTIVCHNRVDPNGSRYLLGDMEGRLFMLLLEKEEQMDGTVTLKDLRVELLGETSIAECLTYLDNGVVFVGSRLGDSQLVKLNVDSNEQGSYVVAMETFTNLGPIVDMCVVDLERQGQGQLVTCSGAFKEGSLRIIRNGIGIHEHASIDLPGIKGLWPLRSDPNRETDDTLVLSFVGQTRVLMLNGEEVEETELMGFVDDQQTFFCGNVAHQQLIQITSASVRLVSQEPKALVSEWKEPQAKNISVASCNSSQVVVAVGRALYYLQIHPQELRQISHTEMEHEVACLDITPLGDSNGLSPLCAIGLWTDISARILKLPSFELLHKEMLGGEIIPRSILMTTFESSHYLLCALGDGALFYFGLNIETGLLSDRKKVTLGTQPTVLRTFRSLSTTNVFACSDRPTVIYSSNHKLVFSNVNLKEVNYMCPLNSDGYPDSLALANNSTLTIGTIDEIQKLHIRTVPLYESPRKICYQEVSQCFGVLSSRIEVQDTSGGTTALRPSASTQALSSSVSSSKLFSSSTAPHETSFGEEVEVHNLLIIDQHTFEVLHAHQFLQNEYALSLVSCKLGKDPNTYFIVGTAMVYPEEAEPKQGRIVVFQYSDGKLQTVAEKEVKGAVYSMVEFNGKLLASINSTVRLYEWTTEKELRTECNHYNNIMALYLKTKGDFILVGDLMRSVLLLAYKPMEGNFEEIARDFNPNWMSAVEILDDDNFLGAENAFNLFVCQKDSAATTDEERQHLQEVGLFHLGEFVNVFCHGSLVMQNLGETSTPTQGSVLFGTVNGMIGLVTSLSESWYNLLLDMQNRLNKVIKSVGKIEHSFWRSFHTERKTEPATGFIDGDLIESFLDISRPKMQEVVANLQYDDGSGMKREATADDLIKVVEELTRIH
Untagged CRBN-DDB1 complex, sequence (Q96SW2 whole entry): as the sequence (Q96SW2 whole entry) above
Untagged CRBN-DDB1 complex, sequence (Q16531 whole entry partner): as the sequence (Q16531 whole entry partner) above

Regarding `O=C1CCC(N2C[C@H](c3cccc(Br)c3)OC2=O)C(=O)N1` (single isomer, unassigned) [Compound I-84, (R)-3-((S)-5-(3-bromophenyl)-2-oxooxazolidin-3-yl)piperidine-2,6-dione or (S)-3-((S)-5-(3-bromophenyl)-2-oxooxazolidin-3-yl)piperidine-2,6-dione], the half-inhibitory concentration (IC50) in experiment [1] was less than 1000 nM.

On to `O=C1CCC(N2C(=O)Cc3ccccc32)C(=O)N1` (centres unmarked) [Compound I-3, 3-(2-Oxo-2,3-dihydro-1H-indol-1-yl)piperidine-2,6-dione], for which the IC50 in experiment [2] was greater than 100000 nM; in experiment [1], 10000 to 100000 nM.

Consider `CN(C)Cc1ccc2c(c1)n(C)c(=O)n2C1CCC(=O)NC1=O` (centres unmarked) [Compound I-61, 3-(5-((dimethylamino)methyl)-3-methyl-2-oxo-2,3-dihydro-1H-benzo[d]imidazol-1-yl)piperidine-2,6-dione], for which, in experiment [1], the IC50 fell in the range of 1000 to 10000 nM.

`CC(=O)Nc1ccc2c(c1)n(C)c(=O)n2C1CCC(=O)NC1=O` (centres unmarked) [Compound I-62, N-(1-(2,6-dioxopiperidin-3-yl)-3-methyl-2-oxo-2,3-dihydro-1H-benzo[d]imidazol-5-yl)acetamide]: the 50% inhibitory concentration (IC50) in experiment [1] was less than 1000 nM.

In the case of `Cc1ccc2c(c1)n(C)c(=O)n2C1CCC(=O)NC1=O` (centres unmarked) [Compound I-63, 3-(3,5-dimethyl-2-oxo-2,3-dihydro-1H-benzo[d]imidazol-1-yl)piperidine-2,6-dione], the half-inhibitory concentration (IC50) in experiment [1] is less than 1000 nM.

On to `Cn1c(=O)n(C2CCC(=O)NC2=O)c2ccc(CN)cc21` (centres unmarked) [Compound I-64, 3-(5-(Aminomethyl)-3-methyl-2-oxo-2,3-dihydro-1H-benzo[d]imidazol-1-yl)piperidine-2,6-dione], for which the IC50 in experiment [1] is less than 1000 nM.

As for `Cn1c(=O)n(C2CCC(=O)NC2=O)c2ccc(N)cc21` (centres unmarked) [Compound I-65, 3-(5-Amino-3-methyl-2-oxo-2,3-dihydro-1H-1,3-benzodiazol-1-yl)piperidine-2,6-dione Hydrochloride], the half-maximal inhibitory concentration (IC50) in experiment [1] was less than 1000 nM.

For `CC(=O)NCc1ccc2c(c1)n(C)c(=O)n2C1CCC(=O)NC1=O` (centres unmarked) [Compound I-66, N-((1-(2,6-dioxopiperidin-3-yl)-3-methyl-2-oxo-2,3-dihydro-1H-benzo[d]imidazol-5-yl)methyl)acetamide], the half-maximal inhibitory concentration (IC50) in experiment [1] is less than 1000 nM.

Turning to `CCNC(=O)Nc1ccc2c(c1)n(C)c(=O)n2C1CCC(=O)NC1=O` (centres unmarked) [Compound I-67, 1-(1-(2,6-dioxopiperidin-3-yl)-3-methyl-2-oxo-2,3-dihydro-1H-benzo[d]imidazol-5-yl)-3-ethylurea], the IC50 in experiment [1] was less than 1000 nM.

For the molecule `CNc1ccc2c(c1)n(C)c(=O)n2C1CCC(=O)NC1=O` (centres unmarked) [Compound I-68, 3-(3-methyl-5-(methylamino)-2-oxo-2,3-dihydro-1H-benzo[d]imidazol-1-yl)piperidine-2,6-dione], the concentration for half-maximal inhibition (IC50) in experiment [1] was less than 1000 nM.

For the molecule `CN(C)c1ccc2c(c1)n(C)c(=O)n2C1CCC(=O)NC1=O` (centres unmarked) [Compound I-69, 3-(5-(dimethylamino)-3-methyl-2-oxo-2,3-dihydro-1H-benzo[d]imidazol-1-yl)piperidine-2,6-dione], the half-maximal inhibitory concentration (IC50) in experiment [1] was less than 1000 nM.

As for `CNC(=O)c1ccc2c(c1)n(C)c(=O)n2C1CCC(=O)NC1=O` (centres unmarked) [Compound I-70, 1-(2,6-Dioxopiperidin-3-yl)-N,3-dimethyl-2-oxo-2,3-dihydro-1H-benzo[d]imidazole-5-carboxamide], in experiment [1], the IC50 was in the range of 1000 to 10000 nM.

Take `CCNC(=O)NCc1ccc2c(c1)n(C)c(=O)n2C1CCC(=O)NC1=O` (centres unmarked) [Compound I-71, 1-((1-(2,6-dioxopiperidin-3-yl)-3-methyl-2-oxo-2,3-dihydro-1H-benzo[d]imidazol-5-yl)methyl)-3-ethylurea]: the IC50 in experiment [1] was less than 1000 nM.

As to `O=C1CC[C@@H](N2C[C@H](c3ccc(Br)cc3)OC2=O)C(=O)N1` [Compound I-72, (R)-3-((S)-5-(4-bromophenyl)-2-oxooxazolidin-3-yl)piperidine-2,6-dione], the half-maximal inhibitory concentration (IC50) in experiment [1] was less than 1000 nM.

Regarding `O=C1CC[C@H](N2C[C@H](c3ccc(Br)cc3)OC2=O)C(=O)N1` [Compound I-73, (S)-3-((S)-5-(4-bromophenyl)-2-oxooxazolidin-3-yl)piperidine-2,6-dione], the IC50 in experiment [1] lay in the range of 10000 to 100000 nM.

`Cn1c(=O)n(C2CCC(=O)NC2=O)c2ccc(CNC(N)=O)cc21` (centres unmarked) [Compound I-74, 1-((1-(2,6-dioxopiperidin-3-yl)-3-methyl-2-oxo-2,3-dihydro-1H-benzo[d]imidazol-5-yl)methyl)urea]: the IC50 in experiment [1] is less than 1000 nM.

As for `Cn1c(=O)n(C2CCC(=O)NC2=O)c2cccc([N+](=O)[O-])c21` (centres unmarked) [Compound I-75, 3-(3-methyl-4-nitro-2-oxo-2,3-dihydro-1H-1,3-benzodiazol-1-yl)piperidine-2,6-dione], the IC50 in experiment [1] is less than 1000 nM.

As to `CCOC(=O)NCc1ccc2c(c1)n(C)c(=O)n2C1CCC(=O)NC1=O` (centres unmarked) [Compound I-76, ethyl ((1-(2,6-dioxopiperidin-3-yl)-3-methyl-2-oxo-2,3-dihydro-1H-benzo[d]imidazol-5-yl)methyl)carbamate], the IC50 in experiment [1] was less than 1000 nM.

In the case of `CC(C)(C)OC(=O)NCCOCCOCCOCCOCC#Cc1ccc([C@H]2CN([C@H]3CCC(=O)NC3=O)C(=O)O2)cc1` [Compound I-77, tert-butyl (15-(4-((S)-3-((S)-2,6-dioxopiperidin-3-yl)-2-oxooxazolidin-5-yl)phenyl)-3,6,9,12-tetraoxapentadec-14-yn-1-yl)carbamate], the half-inhibitory concentration (IC50) in experiment [1] is less than 1000 nM.

With `Cn1c(=O)n(C2CCC(=O)NC2=O)c2cccc(C#N)c21` (centres unmarked) [Compound I-78], the concentration for half-maximal inhibition (IC50) in experiment [1] is less than 1000 nM.

On to `Cc1cc(-c2ccc3c(c2)n(C)c(=O)n3C2CCC(=O)NC2=O)n[nH]1` (centres unmarked) [Compound I-79, 3-(3-methyl-5-(3-methyl-1H-pyrazol-5-yl)-2-oxo-2,3-dihydro-1H-benzo[d]imidazol-1-yl)piperidine-2,6-dione], for which the IC50 in experiment [1] was less than 1000 nM.

Regarding `Cc1nc(-c2ccc3c(c2)n(C)c(=O)n3C2CCC(=O)NC2=O)c[nH]1` (centres unmarked) [Compound I-80, 3-(3-methyl-5-(2-methyl-1H-imidazol-5-yl)-2-oxo-2,3-dihydro-1H-benzo[d]imidazol-1-yl)piperidine-2,6-dione], the IC50 in experiment [1] was less than 1000 nM.

Consider `Cn1c(=O)n(C2CCC(=O)NC2=O)c2cccc(N)c21` (centres unmarked) [Compound I-81, 3-(4-amino-3-methyl-2-oxo-2,3-dihydro-1H-benzo[d]imidazol-1-yl)piperidine-2,6-dione], for which the concentration for half-maximal inhibition (IC50) in experiment [1] is less than 1000 nM.

For the molecule `Cn1c(=O)n(C2CCC(=O)NC2=O)c2ccc(-c3cn(CCOCCOCCOCCNC(=O)OC(C)(C)C)nn3)cc21` (centres unmarked) [Compound I-82, tert-butyl (2-(2-(2-(2-(4-(1-(2,6-dioxopiperidin-3-yl)-3-methyl-2-oxo-2,3-dihydro-1H-benzo[d]imidazol-5-yl)-1H-1,2,3-triazol-1-yl)ethoxy)ethoxy)ethoxy)ethyl)carbamate], the half-inhibitory concentration (IC50) in experiment [1] is less than 1000 nM.

In the case of `CC(C)(C)OC(=O)NCCOCCOCCOCCOCCCc1ccc([C@H]2CN(C3CCC(=O)NC3=O)C(=O)O2)cc1` (stereo partly drawn) [Compound I-83, tert-butyl (15-(4-((5S)-3-(2,6-dioxopiperidin-3-yl)-2-oxooxazolidin-5-yl)phenyl)-3,6,9,12-tetraoxapentadecyl)carbamate], the IC50 in experiment [1] was less than 1000 nM.

Take `Cn1c(=O)n(C2CCC(=O)NC2=O)c2ccc(CCCOCCOCCOCCOCCNC(=O)OC(C)(C)C)cc21` (centres unmarked) [Compound I-85, tert-butyl (15-(1-(2,6-dioxopiperidin-3-yl)-3-methyl-2-oxo-2,3-dihydro-1H-benzo[d]imidazol-5-yl)-3,6,9,12-tetraoxapentadecyl)carbamate]: the half-maximal inhibitory concentration (IC50) in experiment [1] is less than 1000 nM.

For the molecule `Cn1c(=O)n(C2CCC(=O)NC2=O)c2cccc(C#CCOCCOCCNC(=O)OC(C)(C)C)c21` (centres unmarked) [Compound I-86, tert-butyl (2-(2-((3-(1-(2,6-dioxopiperidin-3-yl)-3-methyl-2-oxo-2,3-dihydro-1H-benzo[d]imidazol-4-yl)prop-2-yn-1-yl)oxy)ethoxy)ethyl)carbamate], the half-inhibitory concentration (IC50) in experiment [1] was less than 1000 nM.

Turning to `Cn1c(=O)n(C2CCC(=O)NC2=O)c2ccc(C(N)=O)cc21` (centres unmarked) [Compound I-90, 1-(2,6-dioxopiperidin-3-yl)-3-methyl-2-oxo-2,3-dihydro-1H-benzo[d]imidazole-5-carboxamide], in experiment [1], the IC50 was greater than 100000 nM.

For orientation: IC50 means the concentration at which inhibition is half-maximal.

These data come from patent US11358948B2, “CRBN ligands and uses thereof” (Kymera Therapeutics, Inc., priority 2017, dated 2022).
